What was measured:
[1] = system: NCI-H522; experiment: NCI in vitro cancer screen, Non-Small Cell Lung Cancer; assay type: cell-based, human; conditions: NCI-H522, unit not printed (M)
[2] = system: SF-295; experiment: NCI in vitro cancer screen, CNS Cancer; assay type: cell-based, human; conditions: SF-295, unit not printed (M)
[3] = system: SK-MEL-28; experiment: NCI in vitro cancer screen, Melanoma; assay type: cell-based, human; conditions: SK-MEL-28, unit not printed (M)
[4] = system: IGROV1; experiment: NCI in vitro cancer screen, Ovarian Cancer; assay type: cell-based, human; conditions: IGROV1, unit not printed (M)
[5] = system: NCI-H23; experiment: NCI in vitro cancer screen, Non-Small Cell Lung Cancer; assay type: cell-based, human; conditions: NCI-H23, unit not printed (M)
[6] = system: UO-31; experiment: NCI in vitro cancer screen, Renal Cancer; assay type: cell-based, human; conditions: UO-31, unit not printed (M)
[7] = system: SNB-19; experiment: NCI in vitro cancer screen, CNS Cancer; assay type: cell-based, human; conditions: SNB-19, unit not printed (M)
[8] = system: KM12; experiment: NCI in vitro cancer screen, Colon Cancer; assay type: cell-based, human; conditions: KM12, unit not printed (M)
[9] = system: MDA-MB-435; experiment: NCI in vitro cancer screen, Melanoma; assay type: cell-based, human; conditions: MDA-MB-435, unit not printed (M)
[10] = system: LOX IMVI; experiment: NCI in vitro cancer screen, Melanoma; assay type: cell-based, human; conditions: unit not printed (M)
[11] = system: SF-539; experiment: NCI in vitro cancer screen, CNS Cancer; assay type: cell-based; conditions: SF-539, unit not printed (M)
[12] = system: HOP-92; experiment: NCI in vitro cancer screen, Non-Small Cell Lung Cancer; assay type: cell-based, human; conditions: HOP (second HOP line), unit not printed (M)
[13] = system: MCF7; experiment: NCI in vitro cancer screen, Breast Cancer; assay type: cell-based, human; conditions: MCF7, unit not printed (M)
[14] = system: A498; experiment: NCI in vitro cancer screen, Renal Cancer; assay type: cell-based, human; conditions: A498, unit not printed (M)
[15] = system: MOLT-4; experiment: NCI in vitro cancer screen, Leukemia; assay type: cell-based, human; conditions: MOLT, unit not printed (M)
[16] = system: NCI-H460; experiment: NCI in vitro cancer screen, Non-Small Cell Lung Cancer; assay type: cell-based, human; conditions: NCI-H460, unit not printed (M)
[17] = system: UACC-257; experiment: NCI in vitro cancer screen, Melanoma; assay type: cell-based, human; conditions: UACC-257, unit not printed (M)
[18] = system: U251; experiment: NCI in vitro cancer screen, CNS Cancer; assay type: cell-based, human; conditions: U251, unit not printed (M)
[19] = system: NCI-H226; experiment: NCI in vitro cancer screen, Non-Small Cell Lung Cancer; assay type: cell-based, human; conditions: NCI-H226, unit not printed (M)
[20] = system: CAKI-1; experiment: NCI in vitro cancer screen, Renal Cancer; assay type: cell-based, human; conditions: CAKI-1, unit not printed (M)
[21] = system: PC-3; experiment: NCI in vitro cancer screen, Prostate Cancer; assay type: cell-based, human; conditions: PC-3, unit not printed (M)
[22] = system: SN12C; experiment: NCI in vitro cancer screen, Renal Cancer; assay type: cell-based, human; conditions: unit not printed (M)
[23] = system: TK-10; experiment: NCI in vitro cancer screen, Renal Cancer; assay type: cell-based, human; conditions: TK-10, unit not printed (M)
[24] = system: MDA-MB-468; experiment: NCI in vitro cancer screen, Breast Cancer; assay type: cell-based, human; conditions: MDA-MB-468, unit not printed (M)
[25] = system: MALME-3M; experiment: NCI in vitro cancer screen, Melanoma; assay type: cell-based, human; conditions: MALME-3M, unit not printed (M)
[26] = system: SR; experiment: NCI in vitro cancer screen, Leukemia; assay type: cell-based, human; conditions: unit not printed (M)
[27] = system: MDA-MB-231 (MDA-MB-231/ATCC); experiment: NCI in vitro cancer screen, Breast Cancer; assay type: cell-based, human; conditions: MDA-MB-231/ATCC, unit not printed (M)
[28] = system: SW-620; experiment: NCI in vitro cancer screen, Colon Cancer; assay type: cell-based, human; conditions: SW-620, unit not printed (M)
[29] = Homo sapiens, read-out: LC50 (the source's name)

COc1cc(/C=C/c2cc(O)cc(O)c2CC=C(C)C)ccc1O [USYDS10, (E)-2-(3-methyl-2-buten-1-yl)-3,4′,5-trihydroxy-3′-methoxystilbene]
GI50 ([1]; Homo sapiens): 0.349 µM
CC50 [1, 29]: 42.2 µM
TGI [1]: 1.46E−5
GI50 ([2]; Homo sapiens): 2.01 µM
CC50 [2, 29]: > 100 µM
TGI [2]: 1.91E−5
GI50 ([3]; Homo sapiens): 0.572 µM
LC50 ([3]; Homo sapiens): 43 µM
TGI [3]: 1.69E−5
GI50 ([4]; Homo sapiens, IGROV-1): 2.03 µM
CC50 ([4]; Homo sapiens, IGROV-1, read-out: LC50 (the source's name)): > 100 µM
TGI [4]: >1.00E−4
GI50 ([5]; Homo sapiens): 0.38 µM
LC50 ([5]; Homo sapiens): 78.3 µM
TGI [5]: 1.52E−5
GI50 ([6]; Homo sapiens): 0.878 µM
CC50 [6, 29]: 95.2 µM
TGI [6]: 2.17E−5
GI50 ([7]; Homo sapiens): 0.613 µM
CC50 [7, 29]: > 100 µM
TGI [7]: 2.28E−5
GI50 ([8]; Homo sapiens): 0.497 µM
CC50 [8, 29]: 85.8 µM
TGI [8]: 1.53E−5
GI50 ([9]; Homo sapiens): 0.0385 µM
CC50 [9, 29]: > 100 µM
TGI [9]: 2.56E−7
GI50 ([10]; Homo sapiens): 0.572 µM
CC50 [10, 29]: 80 µM
TGI [10]: 1.93E−5
GI50 ([11]; Homo sapiens): 0.376 µM
CC50 [11, 29]: 41.7 µM
TGI [11]: 1.29E−5
TGI [12]: 2.63E−5
GI50 ([12]; Homo sapiens, HOP-92): 0.398 µM
CC50 ([12]; Homo sapiens, HOP-92, read-out: LC50 (the source's name)): 93.2 µM
GI50 ([13]; Homo sapiens): 0.332 µM
CC50 [13, 29]: 50.6 µM
TGI [13]: 1.30E−5
TGI [14]: 7.85E−6
GI50 ([14]; Homo sapiens): 2.17 µM
CC50 [14, 29]: 34.8 µM
GI50 ([15]; Homo sapiens, MOLT-4): 0.596 µM
CC50 ([15]; Homo sapiens, MOLT-4, read-out: LC50 (the source's name)): > 100 µM
TGI [15]: 1.99E−5
GI50 ([16]; Homo sapiens): 0.381 µM
CC50 [16, 29]: 66.1 µM
TGI [16]: 1.29E−5
GI50 ([17]; Homo sapiens): 11.7 µM
CC50 [17, 29]: 73.7 µM
TGI [17]: 2.94E−5
GI50 ([18]; Homo sapiens, U-251): 0.419 µM
CC50 ([18]; Homo sapiens, U-251, read-out: LC50 (the source's name)): 78.8 µM
TGI [18]: 1.62E−5
GI50 ([19]; Homo sapiens): 5.35 µM
LC50 (50% lethal concentration) ([19]; Homo sapiens): > 100 µM
TGI [19]: 3.50E−5
TGI [20]: 6.68E−5
GI50 ([20]; Homo sapiens): 0.539 µM
CC50 [20, 29]: > 100 µM
GI50 ([21]; Homo sapiens): 2.27 µM
CC50 [21, 29]: > 100 µM
TGI [21]: 3.12E−5
GI50 ([22]; Homo sapiens): 0.671 µM
CC50 [22, 29]: > 100 µM
TGI [22]: 2.98E−5
GI50 ([23]; Homo sapiens): 9.55 µM
LC50 ([23]; Homo sapiens): > 100 µM
TGI [23]: 5.15E−5
GI50 ([24]; Homo sapiens): 0.373 µM
CC50 [24, 29]: 44.9 µM
TGI [24]: 1.44E−5
GI50 ([25]; Homo sapiens): 18.7 µM
CC50 [25, 29]: 92.9 µM
TGI [25]: 4.17E−5
GI50 ([26]; Homo sapiens): 0.188 µM
CC50 [26, 29]: > 100 µM
TGI [26]: >1.00E−4
GI50 ([27]; Homo sapiens): 0.642 µM
CC50 [27, 29]: > 100 µM
TGI [27]: 3.20E−5
GI50 ([28]; Homo sapiens): 0.362 µM
CC50 [28, 29]: 85.5 µM
TGI [28]: 2.15E−5
